Experimental data taken from patent publication US20230248741A1, “Compositions and Methods for Lowering Triglycerides in a Subject with Reduced Kidney Function and Diabetes Mellitus” (Amarin Pharmaceuticals Ireland Limited, priority 2018, published 2023).

System: patients with chronic kidney disease (eGFR <60 mL/min/1.73 m^2 for ≥3 months)
Experiment: ANCHOR post-hoc: lipid and lipoprotein parameters, oxidation and inflammation markers
Format: in vivo, human
Description: CVD-related (e.g., atherogenic) parameters were analyzed in a post-hoc study of 55 patients from the multi-center, placebo-controlled, randomized double-blind, 12-week study described in Example 1. These 55 patients have chronic kidney disease (e.g., eGFR<60 mL/min/1.73 m^2 for ≥3 months). There was no lower limit of eGFR specified.
Subjects: 19 patients were randomized to E-EPA and 36 patients were randomized to placebo. One patient in each group discontinued and was excluded from efficacy analyses (but not safety analyses). EPA levels in plasma and RBC were measured in 23 of the 55 patients. These measurements were taken on 7 of the patients randomized to E-EPA and on 16 of the patients that were randomized to the placebo.
The primary objective of this post-hoc study, which is based on an intention to treat, was to determine if and how 4 g daily of >96% E-EPA affects patients with stage 3 chronic kidney disease (e.g., eGFR<60 mL/min/1.73 m^2 for ≥3 months). The secondary objective was to determine if and how 4 g daily of >96% E-EPA, compared to a placebo, affected CVD-related parameters in patients with a high risk of CVD and fasting TG levels ≥[…] and <500 mg/dL, despite LDL-C goal on statin therapy. These CVD-parameters include lipid levels, lipoprotein levels, and inflammatory markers, such as TC, LDL-C, HDL-C, VLDL-C, VLDL-TG, RLP-C, non-HDL-C, Apo B, Apo C-III, Lp-PLA, hsCRP, and ox-LDL, and in plasma and RBC EPA concentration. CVD-parameters were analyzed for median difference in percent change from baseline to week 12 in subjects receiving 4 g/day of E-EPA and those receiving the placebo.
Analysis: The median difference in percent change from baseline between 4 g/day of E-EPA and placebo for the primary efficacy variable and additional assessments were estimated using the Hodges-Lehmann method (P values from the Wilcoxon rank-sum test for treatment comparisons). Using the Hodges-Lehmann method, departures from normal distribution were observed; for normally distributed parameters, an analysis of covariance model was used with least squares (LS) means and standard errors (SE). Missing values were imputed using the last-observation-carried-forward method. For all post hoc analyses, the alpha for statistical significance was 0.05.

[1] = 4 g/day group (n = 17), before treatment
[2] = 4 g/day group, before treatment
[3] = 4 g/day, week 12, Hodges-Lehmann

Q: For `CC/C=C\C/C=C\C/C=C\C/C=C\C/C=C\CCCC(=O)OCC` [E-EPA, ethyl eicosapentaenoate], which “Ox-LDL Baseline, median” value (4 g/day group (n = 8), before treatment) is on record?
A: The value was 48.6 u/L.

Q: And the “RLP-C Baseline, median” value (4 g/day group (n = 9), before treatment)?
A: Its value is 17.0 mg/dL.

Q: What about the “Apo C-III Baseline, median” value (4 g/day group (n = 13), before treatment) of the same compound?
A: Its value is 15.6 mg/dL.

Q: What about the “Apo B Baseline, median” value [1] of the same compound?
A: Its value is 87.0 mg/dL.

Q: What about the “Lp-PLA2 Baseline, median” value [1] of the same compound?
A: Its value is 173.0 ng/mL.

Q: And the “hsCRP Baseline, median” value [1]?
A: The value was 1.9 mg/L.

Q: And the “TGs Baseline, median” value (4 g/day group (n = 18), before treatment)?
A: Its value is 268.5 mg/dL.

Q: What about the “HDL-C Baseline, median” value [2] of the same compound?
A: The value was 35.0 mg/dL.

Q: And the “LDL-C Baseline, median” value [2]?
A: Its value is 76.0 mg/dL.

Q: What about the “Non-HDL-C Baseline, median” value [2] of the same compound?
A: Its value is 124.5 mg/dL.

Q: And the “TC Baseline, median” value [2]?
A: The value was 159.5 mg/dL.

Q: What about the “VLDL-C Baseline, median” value [2] of the same compound?
A: The value was 42.0 mg/dL.

Q: What about the “VLDL-TGs Baseline, median” value [2] of the same compound?
A: Its value is 194.0 mg/dL.

Q: And the “reduction of TG compared to placebo” value (4 g/day, 12 weeks, P=0.007)?
A: The value was “at least 16.9%”.

Q: And the “median TGs reduction from baseline” value (4 g/day, CKD cohort)?
A: The value was −16.9%.

Q: What about the “Apo B Change From Baseline, %, median” value (4 g/day, week 12) of the same compound?
A: The value was −7.2%.

Q: And the “Apo B End of Treatment, median” value (4 g/day, week 12)?
A: Its value is 83.0 mg/dL.

Q: What about the “Apo C-III Change From Baseline, %, median” value (4 g/day, week 12) of the same compound?
A: Its value is −7.3%.

Q: What about the “Apo C-III End of Treatment, median” value (4 g/day, week 12) of the same compound?
A: The value was 13.9 mg/dL.

Q: And the “HDL-C Change From Baseline, %, median” value (4 g/day, week 12)?
A: The value was 0.9%.

Q: What about the “HDL-C End of Treatment, median” value (4 g/day, week 12) of the same compound?
A: Its value is 35.5 mg/dL.

Q: And the “LDL-C Change From Baseline, %, median” value (4 g/day, week 12)?
A: Its value is −6.5%.

Q: What about the “LDL-C End of Treatment, median” value (4 g/day, week 12) of the same compound?
A: Its value is 70.5 mg/dL.

Q: And the “Lp-PLA2 Change From Baseline, %, median” value (4 g/day, week 12)?
A: Its value is −12.7%.

Q: And the “Lp-PLA2 End of Treatment, median” value (4 g/day, week 12)?
A: Its value is 150.0 ng/mL.

Q: What about the “Non-HDL-C Change From Baseline, %, median” value (4 g/day, week 12) of the same compound?
A: Its value is −8.4%.

Q: And the “Non-HDL-C End of Treatment, median” value (4 g/day, week 12)?
A: The value was 116.0 mg/dL.

Q: What about the “Ox-LDL Change From Baseline, %, median” value (4 g/day, week 12) of the same compound?
A: The value was −9.5%.

Q: And the “Ox-LDL End of Treatment, median” value (4 g/day, week 12)?
A: Its value is 45.1 u/L.

Q: What about the “TC Change From Baseline, %, median” value (4 g/day, week 12) of the same compound?
A: The value was −8.1%.

Q: What about the “TC End of Treatment, median” value (4 g/day, week 12) of the same compound?
A: The value was 151.5 mg/dL.

Q: What about the “TGs Change From Baseline, %, median” value (4 g/day, week 12) of the same compound?
A: The value was −17.1%.

Q: What about the “TGs End of Treatment, median” value (4 g/day, week 12) of the same compound?
A: Its value is 230.5 mg/dL.

Q: And the “VLDL-C Change From Baseline, %, median” value (4 g/day, week 12)?
A: Its value is −16.3%.

Q: And the “VLDL-C End of Treatment, median” value (4 g/day, week 12)?
A: The value was 36.5 mg/dL.

Q: And the “VLDL-TGs Change From Baseline, %, median” value (4 g/day, week 12)?
A: The value was −25.8%.

Q: What about the “VLDL-TGs End of Treatment, median” value (4 g/day, week 12) of the same compound?
A: Its value is 168.5 mg/dL.

Q: And the “hsCRP Change From Baseline, %, median” value (4 g/day, week 12)?
A: Its value is −16.9%.

Q: And the “hsCRP End of Treatment, median” value (4 g/day, week 12)?
A: Its value is 2.1 mg/L.

Q: What about the “Apo B Median Difference in % Change From Baseline vs. Placebo” value [3] of the same compound?
A: The value was −18.7, 0.0002%.

Q: And the “Apo C-III Median Difference in % Change From Baseline vs. Placebo” value [3]?
A: Its value is −15.0, 0.0168%.

Q: And the “HDL-C Median Difference in % Change From Baseline vs. Placebo” value [3]?
A: The value was −8.3, 0.0362%.

Q: What about the “LDL-C Median Difference in % Change From Baseline vs. Placebo” value [3] of the same compound?
A: Its value is −20.8, 0.0086%.

Q: And the “Lp-PLA2 Median Difference in % Change From Baseline vs. Placebo” value [3]?
A: The value was −17.5, 0.0068%.

Q: What about the “Non-HDL-C Median Difference in % Change From Baseline vs. Placebo” value [3] of the same compound?
A: The value was −21.5, <0.0001%.

Q: What about the “Ox-LDL Median Difference in % Change From Baseline vs. Placebo” value [3] of the same compound?
A: The value was −25.7, 0.0068%.

Q: And the “RLP-C Median Difference in % Change From Baseline vs. Placebo” value [3]?
A: The value was −38.8, 0.0295%.

Q: And the “TC Median Difference in % Change From Baseline vs. Placebo” value [3]?
A: The value was −18.2, <0.0001%.

Q: And the “TGs Median Difference in % Change From Baseline, Icosapent Ethyl 4 g/day vs. Placebo” value [3]?
A: The value was −16.9, 0.0074%.

Q: And the “VLDL-C Median Difference in % Change From Baseline vs. Placebo” value [3]?
A: Its value is −28.7, 0.0026%.

Q: What about the “VLDL-TGs Median Difference in % Change From Baseline vs. Placebo” value [3] of the same compound?
A: The value was −25.6, 0.0020%.

Q: And the “hsCRP Median Difference in % Change From Baseline vs. Placebo” value (4 g/day, week 12, Hodges-Lehmann, P 0.1209)?
A: The value was −25.0, 0.1209%.

Q: And the “RLP-C Change From Baseline, %, median” value (4 g/day, week 12, n = 9)?
A: Its value is −38.9%.

Q: What about the “RLP-C End of Treatment, median” value (4 g/day, week 12, n = 9) of the same compound?
A: The value was 10.0 mg/dL.
